Measured values as given in US8633245B2, “PAI-1 inhibitor” (Institute of Medicinal Molecular Design, Inc., priority 2008, dated 2014).
Read-outs that look alike come from different tables or passages of the source.

Biological target: T1, recombinant human PAI-1 (Homo sapiens, UniProt P05121)
T1 construct: purchased Molecular Innovations, Inc
Experiment: Test Example 2: human PAI-1 inhibitory activity (tPA fluorogenic substrate, pH 7.4 HEPES buffer)
Type: biochemical
Protocol: 0.1 M HEPES, 0.1 M NaCl. 1 mM EDTA. 0.1% Polyethylene glycol 8,000 (Hampton Research Corporation),
2 mM Dimethyldecylphoshine oxide [Apo-10] (Fluka Corporation)

[1] = human PAI-1, compound concentration 0.1 μM
[2] = human PAI-1, compound concentration 0.3 μM
[3] = human PAI-1, compound concentration 1 μM
[4] = human PAI-1, compound concentration 3 μM
[5] = human PAI-1, compound concentration 10 μM
[6] = human PAI-1, compound concentration 25 μM
[7] = human PAI-1, calculated from the inhibition rates
[8] = read-out: Inhibition Rate of PAI-1 Activity (%)

T1 sequence (P05121 24-402): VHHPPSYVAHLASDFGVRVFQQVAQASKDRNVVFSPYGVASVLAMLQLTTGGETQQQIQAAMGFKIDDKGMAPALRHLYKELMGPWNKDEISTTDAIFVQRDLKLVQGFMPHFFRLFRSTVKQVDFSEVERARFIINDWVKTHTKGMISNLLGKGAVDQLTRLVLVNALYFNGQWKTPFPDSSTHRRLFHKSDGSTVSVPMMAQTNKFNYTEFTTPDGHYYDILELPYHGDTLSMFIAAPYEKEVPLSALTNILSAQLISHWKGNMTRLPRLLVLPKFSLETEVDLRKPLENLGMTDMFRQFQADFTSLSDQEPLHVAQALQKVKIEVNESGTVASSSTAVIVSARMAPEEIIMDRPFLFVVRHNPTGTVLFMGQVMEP

SMILES	Inhibition Rate of PAI-1 Activity (%) [1]	Inhibition Rate of PAI-1 Activity (%) [2]	Inhibition Rate of PAI-1 Activity (%) [3]	Inhibition Rate of PAI-1 Activity (%) [4]	also measured
CC(C)(C)c1ccc(Oc2cc(-c3cccc([N+](=O)[O-])c3)ccc2OCC(=O)O)cc1 [Compound 485]	0%	6%	11%	69%	
CCCCCOc1ccc(-c2ccc(OC(F)(F)F)cc2)cc1CN(C(=O)C(=O)O)c1ccc(C(C)(C)C)cc1 [Compound 645]	6%	26%	95%	>99%	
CC(C)(C)c1cccc(Oc2ccc(-c3ccc(OC(F)(F)F)cc3)cc2/C=C/C(=O)O)c1 [Compound 437]	0%	12%	67%	98%	
CCC(CC)Oc1ccc(-c2ccc(OC(F)(F)F)cc2)cc1N(CCCCc1ccccc1)C(=O)C(=O)O [Compound 369]					IC50: 690 nM
O=C(O)C(=O)N(CCCCc1ccccc1)c1cc(-c2ccc(OC(F)(F)F)cc2)ccc1OCCCCCO [Compound 676]	7%	4%	60%	>99%	
CCCCC(Oc1cc(Oc2ccc(C(C)(C)C)cc2)cc(-c2ccc(OC(F)(F)F)cc2)c1)C(=O)O (centres unmarked) [Compound 426]	10%	29%	95%	97%	
CC(C)(C)c1ccc(-c2ccc(CN(C(=O)C(=O)O)c3ccc(OC(F)(F)F)cc3)cc2)cc1 [Compound 615]			43%	98%	Inhibition Rate of PAI-1 Activity (%) [5]: >99%; Inhibition Rate of PAI-1 Activity (%) [6]: 95%
CC(C)(C)c1ccc(Oc2cc(-c3ccccc3OC(F)(F)F)ccc2CCC(=O)O)cc1 [Compound 467]	2%	6%	73%	>99%	
CC(C)(C)c1ccc(Oc2ccc(-c3ccc(OC(F)(F)F)cc3)cc2OCC(=O)O)cc1 [Compound 302]					IC50 [7]: 1700 nM
Cc1cccc(-c2ccc(OCC(=O)O)c(Oc3ccc(C(C)(C)C)cc3)c2)c1 [Compound 319]					IC50 [7]: 2100 nM
O=C(O)CCc1ccc(-c2ccc(OC(F)(F)F)cc2)cc1Oc1ccc(OC(F)(F)F)cc1 [Compound 479]	17%	14%	70%	>99%	
CCCCCOc1ccc(-c2ccc(OC(F)(F)F)cc2)cc1N(CCCCOc1ccccc1)C(=O)C(=O)O [Compound 374]					IC50: 880 nM; inhibition at 3 µM [8]: > 99%
CCCCCCCCCOc1cc(-c2ccc(OC(F)(F)F)cc2)ccc1N(CCCCc1ccccc1)C(=O)C(=O)O [Compound 380]					IC50: < 100 nM; inhibition at 3 µM [8]: > 99%
CCCN(CC(=O)O)c1cc(-c2ccc(OC(F)(F)F)cc2)ccc1Oc1ccc(C(C)(C)C)cc1 [Compound 435]	12%	29%	81%	98%	
O=C(O)/C=C/c1ccc(-c2ccc(OC(F)(F)F)cc2)cc1OCCCOCc1ccccc1 [Compound 487]	0%	3%	26%	98%	
CC(C)[C@@H]1CC[C@@H](C)C[C@H]1Oc1ccc(-c2ccc(OC(F)(F)F)cc2)cc1N(CCCCc1ccccc1)C(=O)C(=O)O [Compound 639]	6%	12%	91%	87%	
CC(C)c1ccc(-c2ccc(/C=C/C(=O)O)c(Sc3ccc(C(C)(C)C)cc3)c2)cc1 [Compound 520]	14%	72%	>99%	>99%	

SMILES	Inhibition Rate of PAI-1 Activity (%) [1]	Inhibition Rate of PAI-1 Activity (%) [2]	Inhibition Rate of PAI-1 Activity (%) [3]	Inhibition Rate of PAI-1 Activity (%) [4]	also measured
O=C(O)CC(=O)N(Cc1ccccc1)c1ccc(-c2ccc(OC(F)(F)F)cc2)cc1F [Compound 602]			9%	18%	Inhibition Rate of PAI-1 Activity (%) [5]: 78%; Inhibition Rate of PAI-1 Activity (%) [6]: >99%
O=C(O)C(=O)N(CCCCc1ccccc1)c1cc(-c2ccc(OC(F)(F)F)cc2)ccc1OC1CCCC1 [Compound 658]	9%	20%	97%	>99%	
O=C(O)CCc1ccc(-c2ccc(OC(F)(F)F)cc2)cc1OCCCOCc1ccccc1 [Compound 488]	0%	10%	36%	91%	
CCCCCCC(Oc1cc(-c2ccc(OC(F)(F)F)cc2)ccc1Oc1ccccc1)C(=O)O (centres unmarked) [Compound 322]					IC50 [7]: 740 nM
CC(C)(C)c1ccc(COc2ccc(-c3ccc(OC(F)(F)F)cc3)cc2C(=O)O)cc1 [Compound 421]	0%	3%	14%	81%	
CC(C)(C)c1ccc(Oc2cc(-c3cc(Cl)ccc3Cl)ccc2OCC(=O)O)cc1 [Compound 455]	9%	20%	93%	99%	
CCCCCCCCOc1ccc(-c2ccc(OC(F)(F)F)cc2)cc1N(CCCCc1ccccc1)C(=O)C(=O)O [Compound 353]					IC50 [7]: 510 nM
O=C(O)CCc1ccc(-c2ccc(OC(F)(F)F)cc2)cc1OC(c1ccccc1)c1ccccc1 [Compound 507]	6%	8%	49%	>99%	
CC(C)(C)c1ccc(Sc2cc(-c3ccc(OC(F)(F)F)cc3)ccc2CC(=O)O)cc1 [Compound 530]	17%	21%	93%	>99%	
CC(C)(C)c1ccc(Oc2cc(-c3ccc(Cl)cc3)ccc2OCC(=O)O)cc1 [Compound 457]	21%	18%	63%	>99%	
O=C(O)C(=O)N(Cc1ccc(-c2ccc(OC(F)(F)F)cc2)cc1)c1ccccc1 [Compound 611]			5%	13%	Inhibition Rate of PAI-1 Activity (%) [5]: 45%; Inhibition Rate of PAI-1 Activity (%) [6]: 81%
CC(C)(C)c1cccc(Oc2ccc(-c3ccc(OC(F)(F)F)cc3)cc2OCC(=O)O)c1 [Compound 439]	12%	9%	44%	>99%	
O=C(O)C(=O)N(CCCCc1ccccc1)c1cc(-c2ccc(OC(F)(F)F)cc2)ccc1Oc1ccccc1 [Compound 638]	5%	15%	57%	>99%	
CC(C)(C)C1CCC(N(C(=O)C(=O)O)c2ccc(-c3ccc(OC(F)(F)F)cc3)cc2)CC1 (centres unmarked) [Compound 665]					Inhibition Rate of PAI-1 Activity (%) (human PAI-1, compound concentration 0.1 μM, 0.1 µM): 9%; Inhibition Rate of PAI-1 Activity (%) (human PAI-1, compound concentration 0.3 μM, 0.3 µM): 8%; Inhibition Rate of PAI-1 Activity (%) (human PAI-1, compound concentration 1 μM, 1 µM): 67%; Inhibition Rate of PAI-1 Activity (%) (human PAI-1, compound concentration 3 μM, 3 µM): >99%
CCCCCCCCCCCCCCCOc1cc(-c2ccc(OC(F)(F)F)cc2)ccc1N(CCCCc1ccccc1)C(=O)C(=O)O [Compound 385]					IC50: < 100 nM; inhibition at 0.3 µM [8]: > 99%; inhibition at 1 µM [8]: > 99%; inhibition at 3 µM [8]: > 99%
CCCCC(Oc1cc(-c2ccc(OC(F)(F)F)cc2)ccc1Oc1ccc(C(C)(C)C)cc1)C(=O)O (centres unmarked) [Compound 303]					IC50 [7]: 540 nM
